Experiments:
[1] = system: vascular intimal hyperplasia resulted from vascular injury due to the cuff; experiment: Mouse cuff-induced injury model, Example 3-2 (EVG staining); type: in vivo, C57BL6/N mice; conditions: for I/M ratio (mean ± S.D.): EVG staining, 5 weeks after cuff; for ratio of I/M (intima/media) compared with the control group: Example 3-2
Procedure: Vascular remodeling analysis was performed by using a cuff-induced injury model. Usefulness of this model in relation to vascular remodeling has been reported (Physiol. Genomics, 2, pp.13-30, 2000; Circulation, 104, pp.2716-2721; Circulation, 106, pp.847-853, 2002). For this experiment, 8-week old male C57BL6/N mice (10 animals/group) were used. In an amount of 100 or 200 mg/kg of NIK-333 or 5 or 10 mg/kg of ATRA suspended in soybean oil was orally given once daily every day from 7 days before placement of a cuff (placement of polyethylene tube around blood vessel) to the day before sacrifice. The control group were received soybean oil alone in the same manner. After the 7-day pretreatment, the right femoral artery was covered with PE50 (polyethylene tube 50, outer diameter: 0.965 mm, length: about 1.5 mm) as a cuff. The animals were sacrificed after 5 weeks. Blood was collected, and the cuff was removed under perfusion fixation via puncture of the left ventricle. For pathological evaluation, Elastica van Gieson (EVG) staining was performed. As a result, the ratio of I/M (intima/media) in vascular intimal hyperplasia resulted from vascular injury due to the cuff decreased in the NIK-333 treatment groups compared with the control group.

[2] = system: 3T3-KLF5 cells; experiment: Growth of cells with stable KLF5 (living cell count); type: cell-based; conditions: for living cell count: 10^−8 to 10^−5 M, 24 hours, serum-free, FIG. 5
Procedure: (§1) “3T3-KLF5 cells”, cells in which KLF5 was stably expressed (obtained by subcloning cDNA of KLF5 in a 3×FLAG expression vector to prepare a construct of 3×FLAG-KLF5, then transfecting 3T3 cells with the construct, and culturing the transfectants in the presence of G418 for 2 weeks to clone G418 resistant cells, control cells not containing KLF5 which were prepared in the same manner are referred to as 3T3-mock cells), were seeded in DMEM medium containing 10% FBS and penicillin G/streptomycin at a rate of 1×10^5 cells/well (6-well plate) and cultured overnight at 37° C. in a 5% CO2 incubator, and then the medium was changed to DMEM medium containing penicillin G/streptomycin (serum-free). The cells were added with NIK-333 dissolved in DMSO after 2 hours, cultured for 24 hours, and then counted.

[3] = system: 3T3-mock cells; experiment: Growth of control cells not containing KLF5 (living cell count); type: cell-based; conditions: for living cell count: 10^−8 to 10^−5 M, 24 hours, serum-free, FIG. 5
Procedure: as §1

[4] = system: KLF5; conditions: reporter assay using cells; Nature Medicine, 8, pp.856-863, 2002; cited from earlier work
[5] = system: neointimal formation in injured blood vessels; conditions: administered to wild type mice; Nature Medicine, 8, pp.856-863, 2002; cited from earlier work
[6] = molecular target: T1, transcription factor KLF5 (PDGF-A promoter activation under overexpression of RARα) (Homo sapiens, UniProt Q13887); experiment: Luciferase assay of KLF5-dependent PDGF-A promoter activation, COS1 cells cotransfected with KLF5 and RARα; type: cell-based
T1 construct: expressed in transfected cells; host or cells: COS1 cells
T1 sequence (P10276 whole entry partner): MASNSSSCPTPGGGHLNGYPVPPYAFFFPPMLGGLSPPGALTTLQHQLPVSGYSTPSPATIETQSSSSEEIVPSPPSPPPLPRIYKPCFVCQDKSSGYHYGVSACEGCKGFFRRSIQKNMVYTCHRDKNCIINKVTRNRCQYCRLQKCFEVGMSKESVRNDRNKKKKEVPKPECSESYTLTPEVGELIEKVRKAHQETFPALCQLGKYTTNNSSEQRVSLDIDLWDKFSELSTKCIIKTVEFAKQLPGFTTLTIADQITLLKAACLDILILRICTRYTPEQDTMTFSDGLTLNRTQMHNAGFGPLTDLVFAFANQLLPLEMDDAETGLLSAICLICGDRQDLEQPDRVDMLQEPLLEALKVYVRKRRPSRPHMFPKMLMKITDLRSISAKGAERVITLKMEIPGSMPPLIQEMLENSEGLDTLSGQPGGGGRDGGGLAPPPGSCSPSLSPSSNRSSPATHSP
T1 sequence (Q13887 whole entry): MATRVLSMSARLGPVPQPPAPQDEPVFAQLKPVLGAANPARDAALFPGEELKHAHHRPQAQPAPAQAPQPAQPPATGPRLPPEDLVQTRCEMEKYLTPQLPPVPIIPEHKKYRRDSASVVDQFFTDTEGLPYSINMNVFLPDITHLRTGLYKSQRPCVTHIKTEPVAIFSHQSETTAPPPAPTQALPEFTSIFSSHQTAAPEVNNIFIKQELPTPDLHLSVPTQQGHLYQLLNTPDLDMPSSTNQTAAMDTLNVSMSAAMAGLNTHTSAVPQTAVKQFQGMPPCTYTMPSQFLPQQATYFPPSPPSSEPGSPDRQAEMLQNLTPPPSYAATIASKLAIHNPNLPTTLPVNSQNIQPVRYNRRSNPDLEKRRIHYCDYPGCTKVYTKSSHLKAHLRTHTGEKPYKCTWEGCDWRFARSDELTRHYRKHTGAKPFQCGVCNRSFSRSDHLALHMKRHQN
Procedure: COS1 cells were seeded on a 24-well plate at a ratio of 5×10^4 cells/well and cultured at 37° C. in a 5% CO2 incubator for 12 hours. Transfection was performed by using TransFast (registered trade name, Promega) transfection reagent according to the protocol attached to the reagent. Specifically, the cells were added with pCAG/KLF5 or empty vector thereof (pCAG), pCMX/RARα or empty vector thereof (pCMX) and PDGF-A promoter (−900)-Luciferase and cultured at 37° C. in a 5% CO2 incubator for 48 hours. NIK-333 was dissolved in dimethyl sulfoxide (DMSO), and added at 10^−7 to 10^−5 M. Then, a luciferase assay was performed by using Dual Luciferase Reporter Assay System (Promega). In contrast to the transfection of the empty vector for KLF5 and the empty vector for RARα (Lane 1), the transfection of the KLF5 gene alone (Lane 2) and transfection of the RARα gene alone (Lane 3), the transfection of the KLF5 and RARα genes (Lane 4) activated the PDGF-A promoter. This KLF5-dependent PDGF-A promoter activation action under overexpression of RARα was inhibited by NIK-333 (Lanes 5 to 7).
(§2) COS1 cells were seeded on a 24-well plate at a rate of 5×10^4 cells/well and cultured overnight at 37° C. in a 5% CO2 incubator. Transfection was performed by using TransFast (registered trade name, Promega) transfection reagent according to the protocol attached to the reagent. Specifically, the cells were added with pCAG/KLF5 or empty vector thereof (pCAG), pRSh/RARα, pRSh/RARβ, pRSh/RARγ or empty vector thereof (pRS-RSV) and PDGF-A promoter (−900)-Luciferase and cultured at 37° C. in a 5% CO2 incubator for 48 hours. NIK-333 was dissolved in dimethyl sulfoxide (DMSO); and added at 10^−12 to 10^−5 M. Then, a luciferase assay was performed by using Dual Luciferase Reporter Assay System (Promega). […] This KLF5-dependent PDGF-A promoter activation under overexpression of RARα was inhibited by NIK-333 (Lanes 5 to 12). […] On the other hand, it was noted that the KLF5-dependent PDGF-A promoter activation action under overexpression of RARβ was not affected by NIK-333.

[7] = molecular target: T2, transcription factor KLF5 (PDGF-A promoter activation under overexpression of RARγ) (Homo sapiens, UniProt Q13887); experiment: Luciferase assay of KLF5-dependent PDGF-A promoter activation, COS1 cells cotransfected with KLF5 and RARγ; type: cell-based; conditions: Example 1-2
T2 construct: expressed in transfected cells; host or cells: COS1 cells
T2 sequence (P13631 whole entry partner): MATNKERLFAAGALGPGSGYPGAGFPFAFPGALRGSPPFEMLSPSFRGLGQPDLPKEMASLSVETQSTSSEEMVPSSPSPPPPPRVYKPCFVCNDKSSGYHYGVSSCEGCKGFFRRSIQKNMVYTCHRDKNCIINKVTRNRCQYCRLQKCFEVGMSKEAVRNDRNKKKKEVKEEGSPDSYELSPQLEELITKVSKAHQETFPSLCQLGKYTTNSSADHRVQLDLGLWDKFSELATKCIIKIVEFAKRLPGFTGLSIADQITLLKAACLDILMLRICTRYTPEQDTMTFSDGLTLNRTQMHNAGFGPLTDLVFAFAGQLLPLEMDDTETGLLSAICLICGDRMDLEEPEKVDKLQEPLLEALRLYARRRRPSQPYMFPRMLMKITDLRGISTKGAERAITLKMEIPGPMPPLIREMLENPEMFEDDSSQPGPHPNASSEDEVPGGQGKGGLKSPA
T2 sequence (Q13887 whole entry): as the sequence (Q13887 whole entry) above
Procedure: as §2

[8] = molecular target: T3, transcription factor KLF5 (PDGF-A promoter activation under overexpression of RARβ) (Homo sapiens, UniProt Q13887); experiment: Luciferase assay of KLF5-dependent PDGF-A promoter activation, COS1 cells cotransfected with KLF5 and RARβ; type: cell-based; conditions: Example 1-2, FIG. 3
T3 construct: expressed in transfected cells; host or cells: COS1 cells
T3 sequence (Q13887 whole entry): as above
Procedure: as §2

[9] = system: Fibroblast-derived 3T3 cells; experiment: Cell growth of fibroblast 3T3 (living cell count); type: cell-based
Procedure: Fibroblast-derived 3T3 cells were seeded on a 24-well plate at a rate of 1×10^6 cells/well and left for 12 hours. Then, NIK-333 and ATRA were added at 10^−7 to 10^−4 M, and living cells were counted 24, 36 and 48 hours later. NIK-333 and ATRA were dissolved in DMSO.

[10] = system: vascular intimal hyperplasia resulted from vascular injury due to the cuff; experiment: Mouse cuff-induced injury model, Example 3-1 (HE staining); type: in vivo, C57BL6/N mice; conditions: for I/M ratio: HE staining, 5 weeks after cuff
Procedure: Vascular remodeling analysis was performed by using a cuff-induced injury model. Usefulness of this model in relation to vascular remodeling has been reported (Physiol. Genomics, 2, pp.13-30, 2000; Circulation, 104, pp.2716-2721, 2001; Circulation, 106, pp.847-853, 2002). For this experiment, 8-week old male C57BL6/N mice (10 animals/group) were used. In an amount of 50 mg/kg of NIK-333 dissolved in soybean oil was orally given once a day and every day from 7 days before placement of a cuff (placement of polyethylene tube around blood vessel) to the day before sacrifice. The control group received soybean oil alone in the same manner. After the 7-day pretreatment, the right femoral artery was covered with PE50 (polyethylene tube 50) as a cuff. The animals were sacrificed after 5 weeks. Blood was collected, and the cuff was removed under perfusion fixation via puncture of the left ventricle. For pathological evaluation, hematoxylin/eosin (HE) staining was performed. As a result, the ratio of I/M (intima/media) in vascular intimal hyperplasia resulted from vascular injury due to the cuff decreased in the NIK-333 treatment group compared with the control group.

[11] = Influence on mouse testes weight and body weight; type: in vivo, C57BL6/N mice
Procedure: Eight-week old male C57BL6/N mice (10 animals/group) were used. In an amount of 50 mg/kg or 100 mg/kg of NIK-333 dissolved in soybean oil was orally given once daily every day for 5 weeks. The control group received soybean oil alone in the same manner. Body weights were measured after 5 weeks. The animals were sacrificed, then the testes were observed by visual observation, and the testes weights were measured.

[12] = clinical; N. Eng. J. Med., 334, pp.1561-1567, 1996; cited from earlier work
[13] = system: hepatoma recurrence; conditions: clinical; long-term administration over one year; N. Eng. J. Med., 334, pp.1561-1567, 1996; cited from earlier work
[14] = 50 mg/kg orally once daily for 5 weeks
[15] = 100 mg/kg orally once daily for 5 weeks

For `CC1=C(/C=C/C(C)=C/C=C/C(C)=C/C(=O)O)C(C)(C)CCC1` [ATRA, all-trans-retinoic acid, reference compound], which “I/M ratio (mean ± S.D.)” value ([1]; 5 mg/kg orally once daily) is on record?
Its value is 0.64 ± 0.3.

And the “I/M ratio (mean ± S.D.)” value ([1]; 10 mg/kg orally once daily)?
Its value is 0.63 ± 0.2.

And the “ratio of I/M (intima/media) compared with the control group” value (shortened to “ratio of I/M (intima/media)”) ([1]; ATRA 5 or 10 mg/kg)?
The value was “no difference was observed”.

What about the living cell count ([2]; 3T3-KLF5 cells) of the same compound?
Its living cell count is “decrease of the living cell count was observed in a concentration-dependent manner”.

What about the living cell count [3] of the same compound?
Its living cell count is “decrease of the living cell count was observed in a concentration-dependent manner”.

Which results are given for `CC1(C)CCC(C)(C)c2cc(NC(=O)c3ccc(C(=O)O)cc3)ccc21` [Am80]?
transcription of PDGF-A induced by KLF5 [4]: inhibited; neointimal formation in injured blood vessels [5]: inhibited

For `CC(C)=CCC/C(C)=C/CC/C(C)=C/C=C/C(C)=C/C(=O)O` [NIK-333, (2E,4E,6E, 10E)-3,7,11,15-Tetramethyl-2,4,6,10,14-hexadecapentanoic acid], which “KLF5-dependent PDGF-A promoter activation action under overexpression of RARα” value ([6]; Example 1-1, COS1 cells, 10^−7 to 10^−5 M, FIG. 1) is on record?
Its value is “inhibited”.

What about the “concentration from which the action showed concentration dependency” value ([6]; Example 1-1, COS1 cells, RARα) of the same compound?
Its value is ≥ 10^−7 M.

And the “KLF5-dependent PDGF-A promoter activation under overexpression of RARα” value ([6]; Example 1-2, COS1 cells, 10^−12 to 10^−5 M, FIG. 2)?
The value was “inhibited”.

And the “concentration from which the inhibitory action was significantly concentration-dependent” value ([6]; Example 1-2, COS1 cells, RARα)?
The value was ≥ 10^−10 M.

And the “inhibitory action compared with ATRA” value ([6]; Example 1-2, RARα)?
Its value is “more potent than that of all-trans-retinoic acid (ATRA)”.

What about the “KLF5-dependent activation of the PDGF-A promoter under overexpression of RARγ” value ([7]; COS1 cells, FIG. 3) of the same compound?
The value was “inhibited”.

What about the “inhibitory action compared with ATRA” value ([7]; RARγ) of the same compound?
Its value is “more potent than that of ATRA”.

What about the “KLF5-dependent PDGF-A promoter activation action under overexpression of RARβ” value [8] of the same compound?
Its value is “not affected”.

And the “concentration from which cell growth was inhibited in a concentration dependent manner” value ([9]; 3T3 cells)?
Its value is ≥ 10^−7 M.

And the “cell growth inhibitory action compared with ATRA” value ([9]; 3T3 cells, FIG. 4)?
Its value is “more potent than that of ATRA”.

What about the “cell growth of 3T3 cells (living cell count)” value ([9]; 10^−7 to 10^−4 M, 24, 36 and 48 hours, FIG. 4) of the same compound?
The value was “inhibited cell growth in a concentration dependent manner”.

And the I/M ratio ([10]; 50 mg/kg orally once a day)?
The I/M ratio was 0.87 ± 0.29.

And the I/M ratio ([10]; 100 mg/kg)?
Its I/M ratio is 0.75 ± 0.31.

And the “ratio of I/M (intima/media)” value ([10]; NIK-333 treatment group, Example 3-1)?
Its value is “decreased”.

What about the “I/M ratio (mean ± S.D.)” value ([1]; 100 mg/kg orally once daily) of the same compound?
The value was 0.38 ± 0.2.

And the “I/M ratio (mean ± S.D.)” value ([1]; 200 mg/kg orally once daily)?
The value was 0.09 ± 0.1.

What about the “ratio of I/M (intima/media)” value ([1]; NIK-333 100 or 200 mg/kg) of the same compound?
The value was “decreased”.

And the Body weight [11, 14]?
Its Body weight is 20.8 ± 0.3 g.

What about the “Weight of both testes” value [11, 14] of the same compound?
The value was 0.1465 ± 0.0043 g.

What about the Body weight [11, 15] of the same compound?
Its Body weight is 21.2 ± 0.3 g.

What about the “Weight of both testes” value [11, 15] of the same compound?
The value was 0.1360 ± 0.0026 g.

What about the “body weight compared with the control group” value ([11]; 50 or 100 mg/kg, 5 weeks) of the same compound?
The value was “no difference was observed”.

What about the “testes weight compared with the control group” value ([11]; 50 or 100 mg/kg, 5 weeks) of the same compound?
The value was “no difference was observed”.

And the “visual observation of the testes” value ([11]; 50 or 100 mg/kg, 5 weeks)?
Its value is “no abnormal finding was observed”.

What about the “action on living cell count compared with ATRA” value ([2]; 3T3-KLF5 cells) of the same compound?
Its value is “more potent than that of ATRA”.

What about the living cell count ([2]; 3T3-KLF5 cells) of the same compound?
The living cell count was “decrease of the living cell count was observed in a concentration-dependent manner”.

What about the “survival rate of 3T3-KLF5 cells versus 3T3-mock cells” value ([2]; after the addition of NIK-333) of the same compound?
Its value is “the survival rate of the 3T3-KLF5 cells was higher than that of the 3T3-mock cells”.

And the “action on living cell count compared with ATRA” value [3]?
Its value is “more potent than that of ATRA”.

What about the living cell count [3] of the same compound?
The living cell count was “decrease of the living cell count was observed in a concentration-dependent manner”.

What about the “liver function failure and adverse side effects observed with other retinoids” value [12] of the same compound?
Its value is “does not substantially induce”.

And the “recurrence of hepatoma after radical treatment” value [13]?
Its value is “significantly inhibited”.
